Test results taken from PubChem BioAssay AID2305 (GlaxoSmithKline (GSK), 2010).

System: P. falciparum 3D7 growth, pLDH absorbance
Assay: P. falciparum 3D7 growth inhibition, dose response, strain 3D7 (AID 2305)

Row | SMILES | IC50 [nM]
1 | CCCCN1CCCN(Cc2cccc(NC(=O)c3ccc(-c4ccccc4)cc3)c2)CC1 | 1030
2 | CC(=O)c1nccc(C)c1N | 930
3 | O=C(N[C@H]1CCN(Cc2ccc(OCCN3CCNCC3)c(Cl)c2)C1)c1ccc(Cl)c(Cl)c1 | 1060
4 | COc1ccc(C2N=C(N)N=C(N)N2c2ccc(Cl)cc2)cc1OC (configuration not stated) | 1000
5 | Ic1cc(CNC2CCCCC2)ccc1OCc1cccc(COc2ccc(CNC3CCCCC3)cc2I)c1 | 830
6 | CCc1cc(-c2onc(C(F)(F)F)c2-c2ccccc2)c(O)cc1OC | 790
7 | COc1cc(C(=O)Nc2cccc(-c3nc4ccccc4[nH]3)c2)cc(OC)c1OC | 720
8 | COc1ccc2c(NN=CC=Cc3ccccc3)ccnc2c1 | 770
9 | CCN(CC)CCNC(=O)c1ccc(NC(=O)c2cc3c(C)nn(-c4ccc(Cl)cc4)c3s2)cc1 | 250
10 | Clc1ccc(CNc2nc(NCCc3cnc[nH]3)nc(Nc3ccc4c(c3)OCO4)n2)cc1 | 950
11 | CCCOc1ccc(N2C(N)=NC(N)=NC2(C)C)cc1 | 490
12 | CCOC(=O)c1cnc2c(OC)cc(OC)c(Cl)c2c1Nc1ccccc1 | 870
13 | CCCCCCCn1c(=O)c(C(=O)Nc2c(C)cccc2C)c(O)c2ccccc21 | 910
14 | CCOc1ccc(-n2nc3c(Cl)nnc(-c4ccccc4)c3c2-c2ccccc2)cc1 | 230
15 | COc1ccc(C(=O)[C@H]2C[C@@H]2CN2CC=C(c3c[nH]c4cccc(Br)c34)CC2)cc1 | 930
16 | O=C(/C=C/c1ccc(Cl)c(Cl)c1)NCCCCCCN1CCN(C(=O)Nc2ccc(Cl)c(Cl)c2)CC1 | 930
17 | COc1cccc2cc(C(=O)N[C@@H](CC(C)C)C(=O)N[C@H](/C=N/NC(=O)OC(C)(C)C)Cc3ccccc3)oc12 | 300
18 | CCCCNS(=O)(=O)c1ccc(NC(=O)c2cc([N+](=O)[O-])ccc2Cl)cc1 | 900
19 | Cc1ccc(C(=O)Nc2ccc(Nc3ccnc4cc(-c5nccs5)ccc34)cc2O)cc1 | 50
20 | COc1ccc(CNc2cc(C)nc3sc4c(c23)CCC2(C4)OCCO2)cc1 | 950
21 | CCCCCCOc1ccc(C(=O)NCCCC2CCCN(CCCCCNC(=O)C=Cc3ccc(Cl)c(Cl)c3)C2)cc1 (configuration not stated) | 700
22 | CN1CCN(CCCN(Cc2ccc(-c3cccc(CNCc4ccc5c(c4)OCO5)c3)cc2)C(=O)NC2CCCCC2)CC1 | 990
23 | NC1=NC(CCc2ccccc2)N(c2ccccc2)C(N)=N1 (configuration not stated) | 80
24 | CC1(C(=O)Nc2ccc([N+](=O)[O-])cc2O)CC2c3ccccc3C1c1ccccc12 (configuration not stated) | 710
25 | CCc1cn(C)c2c(N3CCCC3=O)cc(C(=O)N[C@@H](Cc3ccccc3)[C@H](O)CNC(C)(C)CCCC(C)C)cc12 | 490

Row | SMILES | IC50 [nM]
26 | COc1ccccc1C1CCN(C2CCC(NC(=O)/C=C/c3cc(F)cc(F)c3)CC2)CC1 (configuration not stated) | 1110
27 | COc1ccc(Oc2cnc(N)nc2N)c(C(C)C)c1 | 740
28 | O=c1ccc2ccc(O)c(O)c2o1 | 30
29 | COc1ccc(CNCc2ccccc2)cc1-c1ccc(OC)c(S(=O)(=O)NCCN2CCCC2)c1 | 830
30 | COc1c(Br)cc(Br)cc1-c1ccc(CN2C3CCCC2CCC3)[nH]1 | 1110
31 | N#Cc1ccc(N2C[C@@H](OCc3ccccc3)C[C@H]2C(=O)NCCC(c2ccccc2)c2ccccc2)c2ccccc12 | 860
32 | Fc1ccc2nc(-c3ccc(-c4ccc(CNCc5cnn(-c6ccccc6)n5)cc4)cc3)[nH]c2c1 | 540
33 | FC(F)(F)c1ccc(N2CCCN(Cc3cccc(-c4ccccc4CNCc4ccc5c(c4)OCO5)c3)CC2)nc1 | 1190
34 | CC(C)c1ccc(CN2CCC(CNC(=O)c3cc(-c4cccc(F)c4)cs3)C2)cc1 (configuration not stated) | 1660
35 | CN1CCc2cc(Br)c(O)cc2C1Cc1ccccc1Cl (configuration not stated) | 670
36 | Cc1cc(C2CCN(CCCCNC(=O)c3ccc(-c4ccc(C#N)cc4)cc3)CC2)c(C)cc1OCCO | 810
37 | CC(C)(C)CC(C)(C)c1ccc(O)c(C(=O)Nc2cccc([N+](=O)[O-])c2)c1 | 590
38 | CS(=O)(=O)Nc1ccc2[nH]cc(C3C[C@H]4CC[C@@H](C3)N4CC3CCC(NC(=O)/C=C/c4ccc(Cl)c(Cl)c4)CC3)c2c1 (some centres not stated) | 870
39 | CC[C@H]1CN2CC[C@H]1C[C@@H]2[C@@H](OC(=O)c1ccc(Cl)cc1)c1ccnc2ccc(OC)cc12 | 920
40 | Cc1ccc(CN2CCCN(Cc3cccc(NC(=O)c4cc5ccccc5s4)c3)CC2)cc1C | 730
41 | c1cncc(CCNCc2cccc(-c3csc(-c4nc5ccccc5[nH]4)c3)c2)c1 | 700
42 | c1cc(CNCC2CCCO2)cc(-c2ccc(-c3nc4ccccc4[nH]3)s2)c1 (configuration not stated) | 1170
43 | CCOc1cccc(C(=O)Nc2cccc(CN3CCCN(Cc4ccc(O)cc4)CC3)c2)c1 | 820
44 | Cc1ccc(-n2nc3ccc(NC(=O)c4ccc([N+](=O)[O-])o4)cc3n2)cc1C | 400
45 | CC(C)CCN1CCCN(Cc2cccc(NC(=O)c3ccc(-c4ccccc4)cc3)c2)CC1 | 890
46 | Cc1cccc2[nH]c(-c3ccc(-c4ccc(CN5CCN(C6CCN(C)CC6)CC5)cc4)s3)nc12 | 140
47 | Cn1ccnc1Sc1ncccc1[N+](=O)[O-] | 970
48 | CCCCCN1CCCC1CNS(=O)(=O)c1ccc(C(=O)Nc2cccc(C(F)(F)F)c2)cc1 (configuration not stated) | 1060
49 | Cc1cccc2[nH]c(-c3cccc(-c4ccc(NC(=O)c5cnc[nH]5)cc4)c3)nc12 | 720
50 | CCc1ccc(S(=O)(=O)Nc2ccc(CCN3CCC(N4CCCCC4)CC3)cc2)cc1 | 990

Row | SMILES | IC50 [nM]
51 | O=C(Nc1ccc(C(=O)N2CCN(CCN3CCN(c4cccc(C(F)(F)F)c4)CC3)CC2)cc1)c1cc(Cl)cc(Cl)c1 | 830
52 | CC(C)NCc1cccc(-c2cccc(NC(=O)c3cccc(Cl)c3)c2)c1 | 590
53 | CC(=O)Nc1ccc(C(=O)Nc2cccc(-c3cccc(-c4nc5ccccc5[nH]4)c3)c2)cn1 | 200
54 | Cc1ccc(-c2noc(COc3ccccc3C(=O)NC3CCCC3)n2)cc1 | 880
55 | Cn1nc(C(F)(F)F)c(-c2ccc(Br)cc2)c1NC(=O)Cc1ccccc1F | 160
56 | NC1=NC2(CCCC2)C(c2ccc(Cl)c(Cl)c2)C(N)=N1 (configuration not stated) | 990
57 | CN1CCN(c2ccc(-c3cccc(NC(=O)c4ccc5ccccc5c4)c3)nn2)CC1 | 380
58 | Cc1cc(O)c(C(C)C)cc1C1(c2cc(C(C)C)c(O)cc2C)OC(=O)c2ccccc21 | 870
59 | CC(C)(C)NC(=O)c1ccc(Oc2ccc(OC(F)(F)F)cc2)c(NC(=O)C(C)(C)C)c1 | 980
60 | O=C(Nc1ccccc1)N(Cc1ccc(-c2cccc(CNCc3ccc4c(c3)OCO4)c2)cc1)C1CCN(Cc2ccccc2)CC1 | 280
61 | COc1cccc(CNC[C@@H](O)[C@H](Cc2ccccc2)NC(=O)c2cc(C(C)C)cc(N3CCCC3=O)c2)c1 | 950
62 | c1ccc(-c2cc(NCc3cccc4ccccc34)c3[nH]ncc3n2)cc1 | 520
63 | Cc1cccc2[nH]c(-c3ccc(-c4cccc(CNCc5ccccc5)c4)cc3)nc12 | 250
64 | N=C(N)c1cc(Cl)cc(NC(=O)Nc2cc(Cl)cc(C(=N)N)c2)c1 | 720
65 | CC(C)CNCc1ccc(-c2ccc(CN(C(=O)NCCc3ccccc3)C3CCN(Cc4ccccc4)CC3)cc2)cc1 | 700
66 | CO/C(=C\C=C\c1cc2cc(Cl)c(Cl)cc2[nH]1)C(=O)NCCCN1CCN(c2ccncc2)CC1 | 730
67 | c1cc(C2=N[C@H]3CCCC[C@@H]3N2)ccc1OCCCOc1ccc(C2=N[C@@H]3CCCC[C@H]3N2)cc1 | 730
68 | O=C(Nc1ccc(OC2CCN(Cc3ccccc3)C2)c(Cl)c1)c1ccc(F)cc1 (configuration not stated) | 790
69 | CCc1cc(I)c2c(c1)C(NCCCNc1cc(=O)c3ccccc3[nH]1)CCN2 (configuration not stated) | 890
70 | COc1cccc(-c2ccc(C(=O)NCC3CCCN(Cc4cccc(C(F)(F)F)c4)C3)s2)c1 (configuration not stated) | 1140
71 | CC(C)(C)N1CCC(N(Cc2ccc(-c3ccc(C(F)(F)F)cc3)cc2)C(=O)Cn2c(CCc3cccc(F)c3F)cc(=O)c3cccnc32)CC1 | 710
72 | CCCCC(=O)Nc1nc2ccc([N+](=O)[O-])cc2s1 | 760
73 | CC(C)NC[C@@H](O)[C@H](Cc1ccccc1)NC(=O)c1cc2c3c(c1)c(C(C)C)cn3CCS(=O)(=O)N2C | 180
74 | Cc1cccc(C)c1CNc1ccnc2cc(Br)ccc12 | 170
75 | CC(=O)c1ccccc1OCCSc1nnc(Cc2cccs2)n1C1CCCCC1 | 920

Row | SMILES | IC50 [nM]
76 | O=[N+]([O-])c1cccc(CNCC2CCN(Cc3ccc(Cl)c(Cl)c3)CC2)c1 | 910
77 | COc1ccccc1CNc1nc(Nc2ccccc2C)nc2ccccc12 | 810
78 | CCOc1ccc(-c2nonc2NC(=O)c2ccco2)cc1OCC | 750
79 | COc1cc(Cc2cnc(N)nc2N)cc(OCCNC(=O)OCc2ccccc2)c1OC | 920
80 | CCOc1ccc2c(NN=Cc3cccc(OC)c3OC)cc(C)nc2c1 | 900
81 | CC1(C)C(=O)Nc2ccccc2N1C(=O)CN1CCN(c2ccccc2O)CC1 | 1070
82 | COc1ccc(-c2cc(C(=O)Nc3ccc4nc(-c5ccccc5)[nH]c4c3)[nH]n2)cc1 | 700
83 | Cc1ccccc1C1CCN(c2ccc(C(=O)Nc3ccc(F)cc3)cn2)CC1 | 190
84 | O=C(Cn1c(=O)oc2ccccc21)N1CCC(n2c(=O)n(CCCN3CCOCC3)c3ccccc32)CC1 | 770
85 | Cc1ccc(CON2C(N)=NC(N)=NC23CCCCC3)c2ccccc12 | 70
86 | CCN(CC)CCNc1ccnc2[nH]c3ccc(C)cc3c12 | 670
87 | COc1cc(COc2c(C)nc(N)nc2N)cc(OC)c1OC | 330
88 | O=C(Nc1cccc(Cl)c1Cl)N1CCc2cc3nccc(N4CCN5CCC[C@H]5C4)c3cc21 | 1040
89 | Nc1ccc2[nH]cc(C3CCN(CC4CCC(NC(=O)/C=C/c5ccc(Cl)c(Cl)c5)CC4)CC3)c2n1 (configuration not stated) | 730
90 | CC(C)c1ccc(OCC(O)CN(C)C(C)C(O)c2ccccc2)c(Br)c1 (configuration not stated) | 810
91 | O=S(=O)(NC1CCN(c2ccnc3cc(Cl)ccc23)C1)c1cccc(F)c1 (configuration not stated) | 490
92 | OC(CN(Cc1ccccc1)Cc1ccccc1)Cn1c2ccc(Cl)cc2c2cc(Cl)ccc21 (configuration not stated) | 990
93 | CC1(C)C(N(O)C(=O)Nc2ccc(Cl)c(Cl)c2)N(c2ccc(Cl)c(Cl)c2)C(=O)N1CCc1ccccc1 (configuration not stated) | 820
94 | O=C(NCCN1CCOCC1)c1csc(C2CCCN(C(=O)c3ccc(O)c(-c4cc(Cl)cc(Cl)c4)c3)C2)n1 (configuration not stated) | 1030
95 | CC(C)(CNCc1cccc(Oc2cccc(C(F)(F)F)c2)c1)c1nc(-c2ccc(Cl)c(O)c2)c(-c2ccnc(N)n2)[nH]1 | 190
96 | Cc1ccc(C(=O)NCC2CCN(c3ccc(C(F)(F)F)cc3NC(=O)c3ccco3)CC2)cn1 | 780
97 | CN1CCN(c2cccc(-c3nnc(-c4ccc(OCC(=O)NCc5cccc(C(F)(F)F)c5)c([N+](=O)[O-])c4)o3)c2)CC1 | 960
